Data from US11572341B2, “Biguanide compound and use thereof” (ImmunoMet Therapeutics Inc., priority 2014, dated 2023).
Counter-ions that a name gives are not always drawn. Like-named read-outs stand apart in the source and are kept apart here.

What was measured:
[1] = tested on: HCT116 cells; test: Inhibitory effect against cancer cell proliferation (MTT); assay type: cell-based, human; details: Homo sapiens, HCT-116; HCT116, MTT, 48 hours; read-out: IC50 (uM) @ HCT116
Description: The formazane crystals thus formed were dissolved using dimethyl sulfoxide (DMSO) and absorbance of the solution was measured at 560 nm. After culturing for 48 hours, […] synthesized in Examples was indicated as cell viability (%) according to each treated concentration.

[2] = tested on: AMPKa [pT172]; test: AMPKa activation [pT172] in MCF7 cell; assay type: cell-based
[3] = tested on: A549 cell line; test: Oxygen consumption rate (OCR) and extracellular acidification rate (ECAR) in A549 cells; assay type: cell-based; details: Homo sapiens, A549, 3 hrs, control group set at 0%, phenformin set at 100%
Description: A549 cell line (purchased from ATCC-American Type Culture Collection (ATCC)), a lung cancer cell line, is treated with the compounds and OCR and ECAR of the cells are measured and thereby those compounds which show an improved effect compared to phenformin are selected.
The cells are plated on an XF96 cell culture plate containing RPMI1640 medium at a concentration of 5×10^3 cells and cultured in 37° C., 5% CO2 conditions to allow them to be attached thereto.
After 24 hours, the cells are treated with the drug at a concentration of 10 μM for 2 hours, the existing medium is washed with a medium for XF analysis (15 mM D-glucose, 15 mM sodium pyruvate, 4 mM L-glutamine, pH 7.4) to remove the medium using a Prep station and treated again with the drugs, and cultured in 37° C., non-CO2 conditions in the Prep station for 1 hour. While culturing in the Prep station, a sensor cartridge is calibrated for 1 hour and added into a plate containing cells, and OCR and ECAR analyses are performed.
The measured values of OCR and ECAR of the compounds are calculated with reference to the measured values of OCR and ECAR of the control group which is set at 0% and the values of OCR and ECAR of phenformin, which was used as the reference drug, set at 100%, and those compounds which show an improved effect compared to those of phenformin are selected.
From the primarily-selected compounds, those compounds which show an improved effect are treated at various concentrations (0 μM, 0.5 μM, 1 μM, 5 μM, 10 μM, and 20 μM) and their reactivity according to concentration was obtained.

`Cl.N=C(N)NC(=N)N1CCN(c2ccccn2)CC1` [Example 127, N1-4-(pyridin-2-yl)piperazine Biguanide Hydrochloride] was tested, and the IC50 [1] was over 100 µM, the “AMPKa activation [pT172] (Unit/ml) @ MCF7 cell” value (“AMPKa activation [pT172]” for short) ([2]; 50 uM) was 5.8 Unit/ml and the Emax at 10 µM ([3]; read-out: ECAR (A549, 3 hrs)) was 7%. The Emax at 10 µM ([3]; read-out: OCR (A549, 3 hrs)) was 10.2%.
Work on `Cl.N=C(NCCc1ccccc1Cl)NC(=N)N1CCCCC1` [Example 14, N1-piperidin-N5-2-chloro)phenethyl Biguanide Hydrochloride] yielded an IC50 [1] of over 100 µM, an Emax at 10 µM ([3]; read-out: ECAR (A549, 3 hrs)) of 63% and an Emax at 10 µM ([3]; read-out: OCR (A549, 3 hrs)) of -7%.
With `N=C(N)NC(=N)Nc1ccc(Br)cc1` [Example 116, N1-(4-bromo)phenyl Biguanide Hydrochloride] the IC50 [1] was 101 µM, the “AMPKa activation [pT172]” value ([2]; 50 uM) was 25.9 Unit/ml and the Emax at 10 µM ([3]; read-out: ECAR (A549, 3 hrs)) was -24%. The Emax at 10 µM ([3]; read-out: OCR (A549, 3 hrs)) was 0%.
With `Cl.N=C(N)NC(=N)Nc1ccccc1` [Example 113, N1-phenyl Biguanide Hydrochloride] the IC50 [1] was 72.7 µM, the “AMPKa activation [pT172]” value ([2]; 5 uM) was 9.9 Unit/ml and the “AMPKa activation [pT172]” value ([2]; 10 uM) was 10.1 Unit/ml. The “AMPKa activation [pT172]” value ([2]; 50 uM) was 28.6 Unit/ml, the Emax at 10 µM ([3]; read-out: ECAR (A549, 3 hrs)) was -24% and the Emax at 10 µM ([3]; read-out: OCR (A549, 3 hrs)) was -3%.
With `CC(C)NC(=N)NC(=N)NCc1cccnc1.Cl` [Example 6, N1-isopropyl-N5-1-(pyridin-3-yl)methyl Biguanide Hydrochloride] the “AMPKa activation [pT172]” value ([2]; 50 uM) was 4.8 Unit/ml, the Emax at 10 µM ([3]; read-out: ECAR (A549, 3 hrs)) was 9.3% and the Emax at 10 µM ([3]; read-out: OCR (A549, 3 hrs)) was 16.7%.
In the case of `Cl.N=C(N)NC(=N)NCc1ccc(F)cc1` [Example 132, N1-(4-fluoro)benzyl Biguanide Hydrochloride], the IC50 [1] was over 100 µM, the “AMPKa activation [pT172]” value ([2]; 5 uM) was 6.1 Unit/ml and the “AMPKa activation [pT172]” value ([2]; 50 uM) was 8.1 Unit/ml. It also gave an Emax at 10 µM ([3]; read-out: ECAR (A549, 3 hrs)) of 44.7% and an Emax at 10 µM ([3]; read-out: OCR (A549, 3 hrs)) of 39.3%.
For `Cl.N=C(NCCc1ccc(Cl)cc1)NC(=N)N1CCCCC1` [Example 13, N1-piperidin-N5-4-chloro)phenethyl Biguanide Hydrochloride], the IC50 [1] was over 100 µM, the Emax at 10 µM ([3]; read-out: ECAR (A549, 3 hrs)) was 61% and the Emax at 10 µM ([3]; read-out: OCR (A549, 3 hrs)) was -20%.
With `Cl.N=C(N)NC(=N)Nc1ccc(N2CCOCC2)cc1` [Example 122, N1-(4-morpholin-4-yl)phenyl Biguanide Hydrochloride] the IC50 [1] was over 100 µM, the “AMPKa activation [pT172]” value ([2]; 50 uM) was 5.9 Unit/ml and the Emax at 10 µM ([3]; read-out: ECAR (A549, 3 hrs)) was 15.5%. For the same compound, the Emax at 10 µM ([3]; read-out: OCR (A549, 3 hrs)) was 13.3%.
`N=C(N)NC(=N)NCCCc1ccc(F)cc1` [Example 147, N1-(4-fluoro)phenylpropyl Biguanide Hydrochloride] was tested, and the Emax at 10 µM ([3]; read-out: ECAR (A549, 3 hrs)) was 126% and the Emax at 10 µM ([3]; read-out: OCR (A549, 3 hrs)) was 74%.
Compound `CN(C(=N)NC(=N)N1CCCC1)c1ccc(OC(F)(F)F)cc1` [Example 82, N1-pyrrolidin-N5-methyl-N5-(4-trifluoromethoxy)phenyl Biguanide Hydrochloride] has an Emax at 10 µM ([3]; read-out: ECAR (A549, 3 hrs)) of 6.9% and an Emax at 10 µM ([3]; read-out: OCR (A549, 3 hrs)) of 7.7%.
